Experimental data taken from patent publication US7928113B2, “Integrin-binding small molecules” (University of Southern California, priority 2005, dated 2011).

How the values were obtained:
[1] = Cytotoxicity MTT assay, HEY; type: cell-based, human; settings: human, HEY ovarian carcinoma cells; HEY, Table 5
From the text: (§1) Cell Culture. Human breast cancer cells (MCF-7, αvβ3—, overexpressed wild-type p53, ER+; MDA-MB 468, p53 mutant, ER+; and MDA-MB-435, αvβ3+, p53 mutant, ER−) and non-small cell lung cancer cells H1975 were obtained from the American Type Cell Culture (Rockville, Md. Q4). The HEY human ovarian carcinoma cell line naturally resistant to cisplatin (CDDP) was kindly provided by Dr. Dubeau (University of Southern California Norris Cancer Center). Cells were maintained as monolayer cultures in RPMI 1640 supplemented with 10% fetal bovine serum (Gemini-Bioproducts, Woodland, Calif.) and 2 mmol/L L-glutamine at 37° C. in a humidified atmosphere of 5% CO2. To remove the adherent cells from the flask for passaging and counting, cells were washed with PBS without calcium or magnesium, incubated with a small volume of 0.25% trypsin-EDTA solution (Sigma, St. Louis, Mo.) for 5 to 10 minutes, and washed with culture medium and centrifuged. All experiments were done using cells in exponential cell growth.
(§2) Cytotoxicity Assay. Cytotoxicity was assessed by 3-(4,5-dimethylthiazol-2-yl)-2,5-diphenyltetrazolium bromide (MTT) assay as previously described.^41, 54 Briefly, cells were seeded in 96-well microtiter plates and allowed to attach. Cells were subsequently treated with a continuous exposure to the corresponding drug for 72 hours. An MTT solution (at a final concentration of 0.5 mg/mL) was added to each well and cells were incubated for 4 hours at 37° C. After removal of the medium, DMSO was added and the absorbance was read at 570 nm. All assays were done in triplicate. The IC50 was then determined for each drug from a plot of log (drug concentration) versus percentage of cell kill.
(§3) Cytotoxicity of Selected Compounds in a Panel of Cancer Cell lines. Initially, we tested all compounds in two breast cancer cell lines MDA-MB-435 and MCF7 with high and low αvβ3 expression as well as in HEY ovarian cancer cell line naturally resistant to cisplatin. […] We observed a remarkable specificity for some of the compounds against these cells. […] Considering the fact that αvβ3 mediates migration, attachment and apoptosis of cancer cells, the combination of these novel high affinity antagonists with conventional cytotoxic drugs should show improved therapeutic benefits without additional toxicity.
(§4) NVX-188 was tested for cytotoxicity by MTT assays in two breast cancer cell lines, MDA-MB-435 with high αvβ3 integrin expression and MCF7 with low αvβ3 integrin expression, and an ovarian cancer cell line, HEY, which was used to test for cell growth inhibition evidence. NVX-188 was further evaluated in a lung cancer cell line, NCI-H1975, and a mouse fibroblast, NIH3T3. NVX-188 was not cytotoxic at the highest dose level tested (20 uM).

[2] = system: HEY ovarian cancer cell line; test: Cytotoxicity MTT assay, HEY; type: cell-based, human; settings: Homo sapiens; 20 μM, HEY, 72 h MTT; read-out: % inhibition of cell growth at 20 μM, HEY
From the text: as §1, §2, §3, §4

[3] = Cytotoxicity MTT assay, MCF7; type: cell-based, human; settings: human, MCF-7 breast cancer cells; MCF-7, Table 5
From the text: as §1, §2, §3, §4

[4] = system: MCF7 breast cancer cell line; test: Cytotoxicity MTT assay, MCF7; type: cell-based, human; settings: Homo sapiens; 20 μM, MCF7, 72 h MTT; read-out: % inhibition of cell growth at 20 μM, MCF7
From the text: as §1, §2, §3, §4

[5] = Cytotoxicity MTT assay, NIH3T3; type: cell-based, mouse; settings: mouse, NIH3T3 fibroblasts; NIH3T3, Table 5
Procedure: as §2, §3, §4

αvβ3 integrin = target: T1, αvβ3 integrin (Homo sapiens, UniProt P05106+P06756); test: Receptor binding assay, competitive binding with 125I-labeled echistatin on the surface of NCI-H1975 cells
T1 construct: endogenous in cells; host or cells: NCI-H1975 cells (non-small cell lung cancer), whole cells in suspension
Procedure: Receptor Binding Assay. […] 96-Well multiscreen DV plate (filter pore size: 0.65 μm, Millipore, Billerica, Mass.) was incubated with ^125I-echistatin (50,000 cpm/well) in the presence of increasing concentrations of αvβ3 antagonists. The total incubation volume was adjusted to 200 μL. After the cells were incubated for 3 h at room temperature, the plate was filtered through multiscreen vacuum manifold and washed twice with cold binding buffer. The hydrophilic PVDF filters were collected, and the radioactivity was determined using NaI(Tl) gamma counter (Packard, Meriden, Conn.). The best-fit IC50 values were calculated by fitting the data by nonlinear regression using GraphPad Prism (GraphPad Software, Inc., San Diego, Calif.). Experiments were carried out with triplicate samples.
αvβ3 Binding. Receptor binding affinity of all compounds on the surface of non-small cell lung cancer NCI-H1975 cells was determined in competitive binding experiments using ^125I-labeled echistatin as radioligand and the results are presented in Table 3. […] These compounds represent a novel set of antagonists with diverse structural scaffolds. […] This is an important feature considering the highly electrostatic nature of the RGD peptide binding region of αvβ3. The RGD peptide forms strong electrostatic interactions through its two charged ends with αvβ3 in the αvβ3-cyclic RGD peptide complex crystal structure. Compounds AV3, AV27, and AV32 broadly fall into a RGD mimetic antagonist category, since they have a carboxylate group or amine/amide group, at either ends that can establish similar electrostatic interactions with αvβ3. Additionally, presence of several hydrophilic functional groups on these compounds favors their interaction with the highly electrostatic region of the RGD binding site of αvβ3. Given these interesting structural features, we tested additional structurally close analogues of AV27 and AV32. However, substructure search queries using the core scaffolds of these compounds in our in-house databases yield no close analogues. Structure-activity studies around the core scaffolds of these two compounds might be an alternative option to further optimize their binding affinity towards αvβ3. […] We carried out a limited structure-activity relationship (SAR) analysis on compound AV26 by testing compounds AV34-AV38 in our binding assay (Table 3). The substructure search using the core scaffold of AV26 as a search query retrieved few compounds from our in-house database of 359,224 compounds. The analogues AV34-AV38 were purchased from Chemical Diversity (San Diego, Calif.) and screened for their αvβ3 binding affinity. […] Studies are also underway to selectively deliver cytotoxic agents such as paclitaxel to αvβ3 overexpressing cancers through covalent conjugation.
Receptor binding affinity of NVX-188 was determined through a competitive binding experiment using ^125I-radiolabeled echistatin on NCI-H1975 cells. Increasing concentrations of NVX-188 were added with a fixed amount of echistatin to determine the concentration of NVX-188 that prevents 50% of the echistatin from binding to αvβ3 integrin on the cell surface (i.e., IC50).

[6] = Cytotoxicity MTT assay, MDA-MB-435; type: cell-based, human; settings: human, MDA-MB-435 breast cancer cells; MDA-MB-435, Table 5
From the text: as §1, §2, §3, §4

[7] = system: MDA-MB-435 breast cancer cell line; test: Cytotoxicity MTT assay, MDA-MB-435; type: cell-based, human; settings: Homo sapiens; 20 μM, MDA-MB-435, 72 h MTT; read-out: % inhibition of cell growth at 20 μM, 435
From the text: as §1, §2, §3, §4

[8] = Cytotoxicity MTT assay, NCI-H1975; type: cell-based, human; settings: human, NCI-H1975 non-small cell lung cancer cells; NCI-H1975, Table 5
From the text: as §1, §2, §3, §4

CCOc1ccc(/N=C2/S/C(=C\c3ccc(N(C)C)cc3)C(=O)N2CC)cc1 [AV35]
IC50 at 72 h [1]: > 20 µM | inhibition at 20 µM [2]: 17% | IC50 at 72 h [3]: > 20 µM | inhibition at 20 µM [4]: 36% | IC50 at 72 h [5]: > 20 µM | IC50 (αvβ3 integrin; 125I-echistatin competition, NCI-H1975 cells, read-out: αvβ3 binding affinity (IC50)): 0.024 µM | fold higher affinity than the parent compound AV26 (αvβ3 integrin; ratio of αvβ3 binding IC50 to AV26): 10 fold | IC50 at 72 h [6]: > 20 µM | inhibition at 20 µM [7]: 26% | IC50 at 72 h [8]: > 20 µM

O=C(CCCCn1cnc2c(S)ncnc21)Nc1ccc(C(=O)O)cc1 [AV1]
inhibition at 20 µM [2]: 14% | inhibition at 20 µM [4]: 0% | inhibition at 20 µM [7]: 0%

COc1cc(/C=C2/SC(N(C)c3ccc(O)cc3)=NC2=O)ccc1OCC(=O)O [AV25]
inhibition at 20 µM [2]: 12% | inhibition at 20 µM [4]: 29% | inhibition at 20 µM [7]: 26%

CCOc1cc(/C=N/Nc2nc(Nc3ccccc3)nc(N3CCCCC3)n2)ccc1OCC(=O)O [AV14]
inhibition at 20 µM [2]: 0% | inhibition at 20 µM [4]: 3% | inhibition at 20 µM [7]: 70%

Nc1nc(O)c2cc(CSc3ccc(C(=O)NC(CCC(=O)O)C(=O)O)cc3)ccc2n1 (stereo not shown) [AV7]
inhibition at 20 µM [2]: 0% | inhibition at 20 µM [4]: 22% | inhibition at 20 µM [7]: 5%

O=C(O)c1ccc(-c2ccc(/C=N/Nc3nc(Nc4ccccc4)nc(Nc4ccccc4)n3)o2)cc1 [AV10]
IC50 at 72 h [1]: 21 ± 3 µM | inhibition at 20 µM [2]: 73% | IC50 at 72 h [3]: > 20 µM | inhibition at 20 µM [4]: 62% | IC50 at 72 h [6]: 18 ± 9 µM | inhibition at 20 µM [7]: 93%

O=C(CCCCn1cnc2c(S)ncnc21)Nc1ccc(C(=O)O)c(O)c1 [AV2]
inhibition at 20 µM [2]: 0% | inhibition at 20 µM [4]: 1% | inhibition at 20 µM [7]: 1%

O=C(O)COc1ccc(/C=N/NC(=O)c2ccc(O)cc2)cc1OCC(=O)O [AV29]
inhibition at 20 µM [2]: 9% | inhibition at 20 µM [4]: 21% | inhibition at 20 µM [7]: 14%

COc1cc(OC)c(/C=C2\S/C(=N/c3ccc(C(=O)O)cc3)N(C)C2=O)cc1Br [AV36]
inhibition at 20 µM [2]: 4% | inhibition at 20 µM [4]: 29% | inhibition at 20 µM [7]: 16%

COc1cc(/C=C2\NC(=O)N(CC(=O)Nc3ccc(C)cc3)C2=O)ccc1OCc1cccc(C(=O)O)c1 [AV21]
inhibition at 20 µM [2]: 0% | inhibition at 20 µM [4]: 43% | inhibition at 20 µM [7]: 26%

Nc1ccc(C(=O)Nc2nc3ccc(C(=O)O)cc3s2)cc1 [AV9]
inhibition at 20 µM [2]: 0% | inhibition at 20 µM [4]: 36% | inhibition at 20 µM [7]: 19%

Nc1nc(O)c2cc(COc3ccc(C(=O)NC(CCC(=O)O)C(=O)O)cc3)ccc2n1 (stereo not shown) [AV8]
inhibition at 20 µM [2]: 6% | inhibition at 20 µM [4]: 24% | inhibition at 20 µM [7]: 12%

COc1cc(/C=N/Nc2nc(Nc3ccc(F)cc3)nc(N3CCCCC3)n2)ccc1OCC(=O)O [AV11]
inhibition at 20 µM [2]: 0% | inhibition at 20 µM [4]: 49% | inhibition at 20 µM [7]: 53%

Cc1ccnc(NS(=O)(=O)c2ccc(NC(=O)c3ccc(C(=O)O)cc3C(=O)O)cc2)n1 [AV18]
inhibition at 20 µM [2]: 0% | inhibition at 20 µM [4]: 11% | inhibition at 20 µM [7]: 18%
